Measured values taken from patent publication US8110543B2, “Anti-invasive and anti-angiogenic compositions” (Angstrom Pharmaceuticals, Inc., priority 1997, dated 2012).

Columns and labels:
[1] = design: species or system mice; settings: mouse, in vivo
Method: CDDP was tested at a dose of 3 mg/kg/day given every other day from day 4×6 administrations, which converts to approximately 6 mg/m^2 per administration. This is a substantially lower dose than that typically given to human patients (20-40 mg/m^2 for most tumors although doses as high as 200 mg/m^2 have been reported in neuroblastomas; the dose depends on the regimen used) since dose limiting toxicity (as exemplified by weight loss) occurs in mice at doses greater than 6 mg/m^2.

U87 tumors = assay: U87 glioblastoma orthotopic model; assay type: in vivo, mice; settings: tumor sections, mouse-CD31 immunostaining
Method: U87 cells were inoculated into the ventricles of nude mice and treatment was initiated 72 hrs after inoculation. Tumor volume was determined using caliper measurements after euthanasia and necropsy.
A: Control; B: Å6 only; C: CDDP only; D: Å6+CDDP.
U87 tumors were surgically inoculated into the cerebral ventricles of mice. The animals were allowed to recover for 72 hours at which time treatment with Å6 (75 mg/kg/day IP bid), CDDP (3 mg/kg/day given every other day from day 4×6 administrations), or a combination of Å6+CDDP was initiated,
Animals were treated for 21 days at which time they were euthanized and their brains evaluated for the presence of tumor. Transverse sections were stained with hematoxylin and eosin (H&E).
Tumor sections were also evaluated for microvessel density using antibodies specific for mouse-CD31 in immunostaining. Very few CD31^+ foci were evident in animals treated with the combination of Å6+CDDP.
Tumors were established as in the previous section, and the same therapeutic regimens were employed. Treatment was discontinued at day 21, and survival was measured. Control animals appeared moribund around day 25 and all of the animals in this group were dead by day 30.

[NH2][Pt]([NH2])([Cl])[Cl] [CDDP, cisplatin, reference compound]
dose at which dose limiting toxicity (weight loss) occurs [1]: greater than 6 mg/m^2
microvessel density (CD31+ foci), angiogenesis (U87 tumors): inhibited angiogenesis to some extent
